# Assay results taken from PubChem BioAssay AID602211 (Sanford-Burnham Center for Chemical Genomics, 2012).
# Activity calls are given as the source filed them.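 How the source made its calls: active means mean IC50 at or below 10 µM; inactive means the rest.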
# System: H9c2 cardiomyocytes, H2O2 protection, ATPLite viability, 2 h
# Test: protection of H9c2 cardiomyocytes from H2O2 death, dose response, cell-based, ATPLite luminescence, set 2 (AID 602211);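 further: potency is for protection so actives keep ATP signal up against peroxide killing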
row,Structure (SMILES),IC50
1,Cc1c(C(=O)Nc2ccc3nc(N4CCOCC4)sc3c2)oc2ccccc12,> 79 µM (inactive)
2,COc1cccc(-c2cnc3c(NC=O)cc(-c4cc(OC)c(OC)c(OC)c4)cn23)c1,3.61 µM
3,COc1ccc(Nc2nnc(-c3ccc(O)cc3)c3ccccc23)cc1C(N)=O,11.3 µM (inactive)
4,CC(C)N1C(=O)S/C(=C/c2ccc3c(c2)n(C)c(=O)n3C)C1=O,1.71 µM
5,COc1ccc(-c2oc3c(OC)c(OC)c(OC)c(O)c3c(=O)c2OC)cc1OC,12.1 µM (inactive)
6,O=C(Nc1cccc(/C=C/c2ccccn2)c1)c1ccc(-n2cncn2)cc1,3.13 µM
7,CCC(c1nnnn1Cc1ccccc1)N1CCC(n2c(=O)[nH]c3ccccc32)CC1 (configuration not stated),> 79 µM (inactive)
8,CC(C)(C)OC(=O)CNC(=O)c1[nH]cnc1C(=O)NCC(=O)OCc1ccccc1,0.747 µM
9,CCOC(=O)C1=C(C)N=c2s/c(=C\c3ccncc3)c(=O)n2C1c1ccc2c(c1)OCO2 (configuration not stated),8.34 µM
10,COc1cc(C(=O)N/N=C/c2sc(N3CCOCC3)nc2-c2ccccc2)cc(OC)c1OC,16.9 µM (inactive)
11,COc1cc(-c2cc(NC=O)c3ncc(-c4ccccc4)n3c2)cc(OC)c1OC,> 79 µM (inactive)
12,CCOC(=O)N1CCC(n2c(SCC(=O)N3CCC(C)CC3)nc3ccccc3c2=O)CC1,> 79 µM (inactive)
13,COCCCN(Cc1ccco1)C(=O)Cn1ncc2c([nH]c3ccccc32)c1=O,10.9 µM (inactive)
14,O=C(c1cc2nc(-c3ccccc3)cc(-c3ccccc3)n2n1)N1CCN(C(=O)c2ccco2)CC1,1.25 µM
15,CCOC(=O)c1cnc(Nc2nc3ccccc3o2)nc1CSc1nnc(C)s1,12.8 µM (inactive)
16,Cc1cccc(NC(=O)c2nc[nH]c2C(=O)NCC(=O)OCc2ccccc2)c1,3.54 µM
17,O=C(N/N=C/c1ccc2c(c1)OCO2)c1ccc(NC(=O)c2ccccc2Cl)cc1,8.05 µM
18,COC(=O)c1ccc(OCC(=O)Nc2ccccc2C(=O)NC2CC2)cc1,22.6 µM (inactive)
19,COc1ccc(-n2c(/C=C/c3ccc(O)c(OC)c3)nc3ccccc3c2=O)cc1,1.58 µM
20,CC(C(=O)NC1CCCC1)N(C(=O)Cn1nnc(-c2ccc(F)cc2)n1)c1ccccc1F (configuration not stated),1.68 µM
21,Cc1nc2c(c(=O)n1CCC1=CCCCC1)c1nc3ccccc3nc1n2/N=C/c1ccccc1,10.5 µM (inactive)
22,Cn1c(=O)[nH]c(=O)c2c1nc(N(CCO)Cc1ccccc1)n2CCCc1ccccc1,11.3 µM (inactive)
23,COc1ccc(NC(=O)c2oc3ccc(S(=O)(=O)N4CCOCC4)cc3c2C)cc1,0.815 µM
24,CC1(C)CC(=O)C2=C(C1)N(CCN1CCOCC1)C1=C(C(=O)CC(C)(C)C1)C2c1ccc(Cl)cc1,9.75 µM

row,Structure (SMILES),IC50
1,CCOc1ccc(C(C(=O)NC2CCCC2)N(C(=O)c2snc(C(N)=O)c2N)c2cccc(O)c2)cc1 (configuration not stated),3.28 µM
2,COC(=O)c1cccc(Nc2nc(-c3cccnc3)nc3ccccc23)c1,7.12 µM
3,O=C(COc1cccc(NC(=O)c2cccc([N+](=O)[O-])c2)c1)c1ccc(F)cc1,9.26 µM
4,COc1cccc(NC(=O)c2oc3ccc(S(=O)(=O)N4CCOCC4)cc3c2C)c1,1.98 µM
5,Cc1ncc(CO)c2cc(C(=O)Nc3ccccc3Cl)c(=Nc3cccc(C(N)=O)c3)oc12,0.51 µM
6,CCOc1cc(/C=C(\C#N)C(=O)Nc2ccc(S(N)(=O)=O)cc2)ccc1OCCN1CCOCC1,8.4 µM
7,NS(=O)(=O)c1ccc(N=Cc2c(O)n(-c3nccs3)c(=O)c3ccccc23)cc1,4.2 µM
8,COc1cc(NC(=O)c2cc3nc(-c4ccccc4)cc(-c4ccccc4)n3n2)cc(OC)c1OC,3.87 µM
9,Cc1ncc(CO)c2c1Oc1nc(-c3ccccc3)nc(SCC(=O)N3CCCCC3)c1C2,> 79 µM (inactive)
10,COc1ccc(-c2cnc3c(NC=O)cc(-c4cccc(NS(C)(=O)=O)c4)cn23)cc1OC,5.59 µM
11,O=C(CN1C(=O)C2CC=CCC2C1=O)Nc1nc(-c2ccc(F)cc2)cs1 (configuration not stated),> 79 µM (inactive)
12,CCOC(=O)N1CCN(C(=O)CSc2nc3c(cnn3-c3ccc(C)cc3)c(=O)[nH]2)CC1,2.14 µM
13,CCN(CC)c1ccc(C2C(C(=O)OC(C)C)C(=O)CC(C)(O)C2C(=O)OC(C)C)cc1 (configuration not stated),7.99 µM
14,COc1cc(-c2cc(C(=O)Nc3ccccc3N3CCOCC3)c3ccccc3n2)cc(OC)c1OC,5.8 µM
15,CNC(=O)c1ccc(-c2sc3nc(N4CCOCC4)c4c(c3c2N)CC(C)(C)OC4)o1,6.13 µM
16,Cc1nc(N2CCN(c3ccccn3)CC2)c2c(C)c(C(=O)Nc3ccc(F)cc3)sc2n1,4.36 µM
17,CC(=O)c1cccc(-c2cnc3c(NC=O)cc(-c4ccccc4F)cn23)c1,7.66 µM
18,O=C(c1cc(=O)[nH]c2ccccc12)N1CCN(S(=O)(=O)c2ccc(Cl)cc2)CC1,1.1 µM
19,COc1cc(/C=N/NC(=O)c2cccnc2)ccc1OCC(=O)Nc1ccccc1Cl,1.78 µM
20,COc1cc(NC(=O)c2cc3c(C)nc4ccccc4c3o2)cc(OC)c1OC,3.36 µM
21,CCOc1cc(-c2cc(-c3ccc(N)cc3)nc(N)c2C#N)ccc1O,5.99 µM
22,O=C(Nc1cccc2cccnc12)c1ccc2sc([C@H]3C[C@H](O)[C@@H](CO)O3)nc2c1,4.33 µM
23,N#C/C(=C\c1ccc(-c2cccc([N+](=O)[O-])c2)o1)C(=O)NCCN1CCOCC1,> 79 µM (inactive)
